In test [1] the target is T1, 5-hydroxytryptamine receptor 1A (Rattus norvegicus, UniProt P19327).
T1 sequence (P19327 whole entry): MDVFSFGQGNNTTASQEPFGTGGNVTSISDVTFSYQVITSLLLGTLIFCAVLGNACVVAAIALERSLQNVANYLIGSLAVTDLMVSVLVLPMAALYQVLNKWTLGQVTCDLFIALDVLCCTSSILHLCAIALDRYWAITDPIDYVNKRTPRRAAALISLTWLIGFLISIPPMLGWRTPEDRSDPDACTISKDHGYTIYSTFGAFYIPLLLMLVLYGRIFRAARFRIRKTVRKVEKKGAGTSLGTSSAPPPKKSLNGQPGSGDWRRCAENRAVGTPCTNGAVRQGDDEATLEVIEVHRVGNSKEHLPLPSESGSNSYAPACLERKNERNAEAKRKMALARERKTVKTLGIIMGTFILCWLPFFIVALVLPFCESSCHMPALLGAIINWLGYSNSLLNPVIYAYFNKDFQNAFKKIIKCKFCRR
In words: Binding affinity towards rat 5-hydroxytryptamine 1A receptor was evaluated using [3H]8-OH-DPAT as radioligand.

Test [2] has as its target 5-hydroxytryptamine receptor 2A (Rattus norvegicus, UniProt P14842). Description: Binding affinity towards rat 5-hydroxytryptamine 2A receptor was evaluated using [3H]- ketanserin as radioligand.
Test [3] concerns the target T2, Adrenergic receptor alpha-2 (Rattus norvegicus, UniProt P22086+P19328+P22909).
T2 sequence (P22086 whole entry): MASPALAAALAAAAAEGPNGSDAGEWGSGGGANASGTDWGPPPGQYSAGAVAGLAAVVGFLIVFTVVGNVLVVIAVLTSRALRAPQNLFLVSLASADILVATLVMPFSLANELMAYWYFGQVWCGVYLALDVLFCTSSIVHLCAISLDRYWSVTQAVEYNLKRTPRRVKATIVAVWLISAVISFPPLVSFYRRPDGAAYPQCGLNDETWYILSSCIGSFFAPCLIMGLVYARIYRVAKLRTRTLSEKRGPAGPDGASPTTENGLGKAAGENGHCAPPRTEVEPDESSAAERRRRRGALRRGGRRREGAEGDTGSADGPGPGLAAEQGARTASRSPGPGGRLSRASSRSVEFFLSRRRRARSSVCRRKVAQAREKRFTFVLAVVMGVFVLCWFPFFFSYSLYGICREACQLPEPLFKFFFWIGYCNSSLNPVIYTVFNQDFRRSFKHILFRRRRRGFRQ
T2 sequence (P19328 whole entry): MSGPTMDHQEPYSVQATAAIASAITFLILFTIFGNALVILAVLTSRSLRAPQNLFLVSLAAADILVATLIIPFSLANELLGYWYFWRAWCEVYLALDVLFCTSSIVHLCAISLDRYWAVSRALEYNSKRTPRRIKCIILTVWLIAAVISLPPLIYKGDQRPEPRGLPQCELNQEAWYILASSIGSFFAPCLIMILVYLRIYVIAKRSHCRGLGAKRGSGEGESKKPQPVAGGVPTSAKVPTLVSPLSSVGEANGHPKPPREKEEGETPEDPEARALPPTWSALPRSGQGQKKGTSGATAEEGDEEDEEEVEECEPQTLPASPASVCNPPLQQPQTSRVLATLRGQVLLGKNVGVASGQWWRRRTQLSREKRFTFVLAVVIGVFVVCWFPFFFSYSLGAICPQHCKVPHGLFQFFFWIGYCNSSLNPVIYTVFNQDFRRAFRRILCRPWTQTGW
T2 sequence (P22909 whole entry): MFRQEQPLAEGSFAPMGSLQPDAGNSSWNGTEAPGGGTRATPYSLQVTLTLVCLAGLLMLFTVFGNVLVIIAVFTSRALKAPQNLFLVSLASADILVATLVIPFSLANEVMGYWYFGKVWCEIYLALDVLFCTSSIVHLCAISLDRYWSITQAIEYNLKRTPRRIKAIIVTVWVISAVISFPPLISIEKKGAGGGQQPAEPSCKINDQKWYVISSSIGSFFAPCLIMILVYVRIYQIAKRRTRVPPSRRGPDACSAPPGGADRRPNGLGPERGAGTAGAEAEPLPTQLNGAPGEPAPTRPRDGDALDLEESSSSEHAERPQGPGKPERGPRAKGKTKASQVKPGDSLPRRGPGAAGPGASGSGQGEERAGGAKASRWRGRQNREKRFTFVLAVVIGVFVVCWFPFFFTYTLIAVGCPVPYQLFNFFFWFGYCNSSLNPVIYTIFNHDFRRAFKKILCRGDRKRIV
In words: Binding affinity towards rat Alpha-2 adrenergic receptor was evaluated using [3H]- yohimbine as radioligand. It counts as protein assay.

In test [4] the target is T3, Adrenergic receptor alpha-1 (Rattus norvegicus, UniProt P15823+P23944+P43140).
T3 sequence (P15823 whole entry): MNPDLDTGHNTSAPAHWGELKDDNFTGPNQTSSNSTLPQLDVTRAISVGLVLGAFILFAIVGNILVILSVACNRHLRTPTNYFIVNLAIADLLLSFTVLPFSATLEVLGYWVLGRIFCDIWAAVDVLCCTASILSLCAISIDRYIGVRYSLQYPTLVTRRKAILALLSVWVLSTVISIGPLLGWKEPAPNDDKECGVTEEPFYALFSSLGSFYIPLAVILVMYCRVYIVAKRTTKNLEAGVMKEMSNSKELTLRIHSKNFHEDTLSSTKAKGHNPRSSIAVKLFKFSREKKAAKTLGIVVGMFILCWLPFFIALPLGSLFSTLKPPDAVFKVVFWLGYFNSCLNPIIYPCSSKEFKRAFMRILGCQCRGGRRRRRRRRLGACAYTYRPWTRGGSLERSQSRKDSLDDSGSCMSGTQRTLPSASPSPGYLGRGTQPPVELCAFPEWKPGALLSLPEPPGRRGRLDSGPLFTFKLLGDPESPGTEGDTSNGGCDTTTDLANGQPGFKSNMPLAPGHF
T3 sequence (P23944 whole entry): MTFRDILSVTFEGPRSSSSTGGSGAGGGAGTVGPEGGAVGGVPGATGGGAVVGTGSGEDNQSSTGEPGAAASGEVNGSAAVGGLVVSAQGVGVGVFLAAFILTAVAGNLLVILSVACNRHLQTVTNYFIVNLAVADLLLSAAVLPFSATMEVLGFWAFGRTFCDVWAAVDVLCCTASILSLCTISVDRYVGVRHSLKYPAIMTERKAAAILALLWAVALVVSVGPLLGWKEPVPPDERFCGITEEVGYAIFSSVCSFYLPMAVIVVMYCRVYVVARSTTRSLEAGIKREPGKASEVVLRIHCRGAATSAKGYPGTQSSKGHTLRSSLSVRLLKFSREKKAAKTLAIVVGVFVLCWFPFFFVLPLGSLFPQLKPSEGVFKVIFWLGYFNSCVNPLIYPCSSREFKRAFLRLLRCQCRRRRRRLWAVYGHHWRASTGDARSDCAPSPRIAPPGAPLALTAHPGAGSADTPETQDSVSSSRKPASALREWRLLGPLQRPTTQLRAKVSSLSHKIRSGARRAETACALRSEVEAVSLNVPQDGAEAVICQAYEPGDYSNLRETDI
T3 sequence (P43140 whole entry): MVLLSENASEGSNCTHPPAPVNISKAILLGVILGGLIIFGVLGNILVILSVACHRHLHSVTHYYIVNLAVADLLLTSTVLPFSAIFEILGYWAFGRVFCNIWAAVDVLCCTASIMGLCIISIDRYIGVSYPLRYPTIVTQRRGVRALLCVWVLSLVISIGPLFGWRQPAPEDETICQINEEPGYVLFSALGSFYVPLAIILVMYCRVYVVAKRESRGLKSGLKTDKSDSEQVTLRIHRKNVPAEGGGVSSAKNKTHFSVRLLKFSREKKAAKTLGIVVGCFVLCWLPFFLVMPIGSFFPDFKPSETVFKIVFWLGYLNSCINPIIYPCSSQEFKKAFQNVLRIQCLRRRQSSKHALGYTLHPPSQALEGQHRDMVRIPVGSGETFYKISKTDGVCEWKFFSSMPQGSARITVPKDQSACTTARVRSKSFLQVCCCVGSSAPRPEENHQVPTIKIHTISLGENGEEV
Description: Binding affinity towards rat Alpha-1 adrenergic receptor was evaluated using [3H]- prazosin as radioligand. It counts as protein assay.

For a further test, the target named is D(2) dopamine receptor (Rattus norvegicus, UniProt P61169). In words: Binding affinity towards rat Dopamine receptor D2 was evaluated using [3H]- spiroperidol as radioligand.
D(2) dopamine receptor, sequence (P61169 whole entry): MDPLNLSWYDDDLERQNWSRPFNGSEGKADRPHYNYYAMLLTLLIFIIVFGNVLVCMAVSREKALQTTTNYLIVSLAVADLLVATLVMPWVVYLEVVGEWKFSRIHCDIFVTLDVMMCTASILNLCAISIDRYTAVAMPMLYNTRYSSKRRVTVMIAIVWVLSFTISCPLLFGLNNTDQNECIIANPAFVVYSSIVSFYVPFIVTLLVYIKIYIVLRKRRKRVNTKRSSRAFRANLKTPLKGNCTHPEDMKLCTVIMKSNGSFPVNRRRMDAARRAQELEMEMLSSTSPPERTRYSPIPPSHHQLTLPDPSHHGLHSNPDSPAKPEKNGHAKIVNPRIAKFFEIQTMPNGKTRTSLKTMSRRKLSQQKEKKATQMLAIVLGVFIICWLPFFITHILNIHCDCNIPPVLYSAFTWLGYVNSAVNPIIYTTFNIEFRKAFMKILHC
Test [5] is described as follows: Selectivity ratio of IC50 values of 5-hydroxytryptamine 1A receptor vs dopamine receptor D2.
Test [6] in a line: Selectivity ratio of IC50 values of 5-hydroxytryptamine 1A receptor vs Alpha-2 adrenergic receptor.
Test [7] is described as follows: Selectivity ratio of IC50 values of 5-hydroxytryptamine 1A receptor vs 5-hydroxytryptamine 2 receptor.

5-hydroxytryptamine receptor 2A, sequence (P14842 whole entry): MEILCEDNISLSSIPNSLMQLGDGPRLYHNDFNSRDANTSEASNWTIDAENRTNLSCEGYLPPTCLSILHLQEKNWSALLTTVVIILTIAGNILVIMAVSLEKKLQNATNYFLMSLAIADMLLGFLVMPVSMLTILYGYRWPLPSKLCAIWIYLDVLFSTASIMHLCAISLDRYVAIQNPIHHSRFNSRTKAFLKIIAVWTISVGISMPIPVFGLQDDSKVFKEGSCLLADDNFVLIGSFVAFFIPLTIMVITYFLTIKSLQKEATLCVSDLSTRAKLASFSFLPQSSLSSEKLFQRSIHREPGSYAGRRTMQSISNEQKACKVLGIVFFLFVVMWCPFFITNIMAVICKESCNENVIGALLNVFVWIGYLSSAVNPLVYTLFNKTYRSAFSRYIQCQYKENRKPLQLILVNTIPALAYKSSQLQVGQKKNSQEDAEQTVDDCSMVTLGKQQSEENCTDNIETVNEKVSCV

Turning to `COc1cccc2c1CCC(CCN1CCN(c3ccccc3)CC1)C2` (stereo unspecified), the half-inhibitory concentration (IC50) (in general, the concentration that gives 50% inhibition) worked out at 54 nM in test [1]; 160 nM in test [2]; 600 nM in test [3]; 100 nM in test [4]; 130 nM on D(2) dopamine receptor. Also, the Selectivity ratio in test [5] worked out at 2; in test [6], 11; in test [7], 3.
Consider `COc1cccc2c1C(CCCN1CCN(c3ccccc3)CC1)CCC2` (stereo unspecified), for which the half-inhibitory concentration (IC50) turned out to be 56 nM in test [1]; 610 nM in test [2]; 140 nM in test [3]; 130 nM in test [4]; 62 nM on D(2) dopamine receptor. Also, the values for the Selectivity ratio in test [5], in test [6] and in test [7] were 1, 3 and 11, respectively.
